Results from ChEMBL document CHEMBL4804284.

Legend:
Parameters in all cases: scale not given: the % may be the effect or the level left
[1] = molecular target: Tyrosine-protein kinase ITK/TSK (Homo sapiens) (UniProt Q08881); assay: Inhibition of DNA-tagged human ITK assessed as percent of control at 50000 nM by qPCR analysis relative to control
[2] = molecular target: Serine/threonine-protein kinase ICK (Homo sapiens) (UniProt Q9UPZ9); assay: Inhibition of DNA-tagged human ICK assessed as percent of control at 50000 nM by qPCR analysis relative to control
[3] = molecular target: Homeodomain-interacting protein kinase 2 (Homo sapiens) (UniProt Q9H2X6); assay: Inhibition of DNA-tagged human HIPK2 assessed as percent of control at 50000 nM by qPCR analysis relative to control
[4] = tested on: Receptor-type tyrosine-protein kinase FLT3 (Homo sapiens), P36888 [K663Q]; assay: Inhibition of DNA-tagged human FLT3 K663Q mutant assessed as percent of control at 50000 nM by qPCR analysis relative to control
[5] = molecular target: Vascular endothelial growth factor receptor 1 (Homo sapiens) (UniProt P17948); assay: Inhibition of DNA-tagged human FLT1 assessed as percent of control at 50000 nM by qPCR analysis relative to control
[6] = molecular target: Ephrin type-B receptor 1 (Homo sapiens) (UniProt P54762); assay: Inhibition of DNA-tagged human EPHB1 assessed as percent of control at 50000 nM by qPCR analysis relative to control
[7] = molecular target: Ephrin type-A receptor 7 (Homo sapiens) (UniProt Q15375); assay: Inhibition of DNA-tagged human EPHA7 assessed as percent of control at 50000 nM by qPCR analysis relative to control
Chain of Ephrin type-A receptor 7 (Homo sapiens) (Q15375 28-998 limits assumed): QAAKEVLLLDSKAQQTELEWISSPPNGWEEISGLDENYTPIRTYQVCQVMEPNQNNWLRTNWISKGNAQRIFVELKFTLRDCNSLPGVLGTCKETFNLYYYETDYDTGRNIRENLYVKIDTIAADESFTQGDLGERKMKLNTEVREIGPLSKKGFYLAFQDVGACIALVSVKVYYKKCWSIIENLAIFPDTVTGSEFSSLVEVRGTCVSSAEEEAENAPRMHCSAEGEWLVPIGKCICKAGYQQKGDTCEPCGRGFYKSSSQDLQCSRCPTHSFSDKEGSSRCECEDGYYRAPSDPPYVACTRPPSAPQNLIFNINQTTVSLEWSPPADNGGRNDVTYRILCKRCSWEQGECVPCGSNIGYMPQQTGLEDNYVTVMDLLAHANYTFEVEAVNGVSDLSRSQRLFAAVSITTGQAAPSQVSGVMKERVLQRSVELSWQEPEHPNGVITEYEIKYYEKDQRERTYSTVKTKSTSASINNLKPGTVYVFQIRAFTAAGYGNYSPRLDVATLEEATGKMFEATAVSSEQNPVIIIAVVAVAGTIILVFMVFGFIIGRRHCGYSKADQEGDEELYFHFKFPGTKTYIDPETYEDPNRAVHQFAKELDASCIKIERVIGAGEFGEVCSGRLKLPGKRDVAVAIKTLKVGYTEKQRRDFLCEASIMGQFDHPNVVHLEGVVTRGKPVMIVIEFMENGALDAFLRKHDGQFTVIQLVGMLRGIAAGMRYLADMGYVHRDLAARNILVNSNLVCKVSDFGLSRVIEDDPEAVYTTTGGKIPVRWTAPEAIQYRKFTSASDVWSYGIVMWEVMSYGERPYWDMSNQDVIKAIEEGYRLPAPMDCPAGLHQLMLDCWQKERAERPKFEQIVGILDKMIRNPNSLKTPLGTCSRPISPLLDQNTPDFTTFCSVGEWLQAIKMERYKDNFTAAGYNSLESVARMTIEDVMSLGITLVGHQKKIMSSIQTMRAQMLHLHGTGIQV

[8] = tested on: Epidermal growth factor receptor (Homo sapiens), P00533 [L858R]; assay: Inhibition of DNA-tagged human EGFR L858R mutant assessed as percent of control at 50000 nM by qPCR analysis relative to control
[9] = molecular target: Serine/threonine-protein kinase 17A (Homo sapiens) (UniProt Q9UEE5); assay: Inhibition of DNA-tagged human DRAK1 assessed as percent of control at 50000 nM by qPCR analysis relative to control
Chain of Serine/threonine-protein kinase 17A (Homo sapiens) (Q9UEE5 whole entry): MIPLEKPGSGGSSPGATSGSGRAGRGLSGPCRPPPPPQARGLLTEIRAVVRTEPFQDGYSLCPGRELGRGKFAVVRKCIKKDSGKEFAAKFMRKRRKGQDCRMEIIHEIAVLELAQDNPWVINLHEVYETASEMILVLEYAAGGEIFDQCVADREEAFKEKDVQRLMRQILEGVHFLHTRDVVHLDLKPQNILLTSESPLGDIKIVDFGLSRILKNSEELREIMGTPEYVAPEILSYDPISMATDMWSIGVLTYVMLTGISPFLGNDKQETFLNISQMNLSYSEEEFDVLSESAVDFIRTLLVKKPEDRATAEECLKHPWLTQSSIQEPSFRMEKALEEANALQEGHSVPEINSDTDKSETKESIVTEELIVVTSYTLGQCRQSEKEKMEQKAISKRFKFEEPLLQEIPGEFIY

[10] = molecular target: Serine/threonine-protein kinase DCLK2 (Homo sapiens) (UniProt Q8N568); assay: Inhibition of DNA-tagged human DCAMKL2 assessed as percent of control at 50000 nM by qPCR analysis relative to control
[11] = molecular target: Cyclin-dependent kinase-like 3 (Homo sapiens) (UniProt Q8IVW4); assay: Inhibition of DNA-tagged human CDKL3 assessed as percent of control at 50000 nM by qPCR analysis relative to control
[12] = molecular target: Cyclin-dependent kinase-like 2 (Homo sapiens) (UniProt Q92772); assay: Inhibition of DNA-tagged human CDKL2 assessed as percent of control at 50000 nM by qPCR analysis relative to control
[13] = molecular target: Calcium/calmodulin-dependent protein kinase type 1 (Homo sapiens) (UniProt Q14012); assay: Inhibition of DNA-tagged human CAMK1 assessed as percent of control at 50000 nM by qPCR analysis relative to control
[14] = tested on: Tyrosine-protein kinase ABL1 (Homo sapiens), P00519 [Y253F]; assay: Inhibition of DNA-tagged phosphorylated human ABL1 Y253F mutant assessed as percent of control at 50000 nM by qPCR analysis relative to control
[15] = tested on: Tyrosine-protein kinase ABL1 (Homo sapiens), P00519 [M351T]; assay: Inhibition of DNA-tagged phosphorylated human ABL1 M351T mutant assessed as percent of control at 50000 nM by qPCR analysis relative to control
[16] = tested on: Mast/stem cell growth factor receptor Kit (Homo sapiens), P10721 [D816H]; assay: Inhibition of DNA-tagged human KIT D816H mutant assessed as percent of control at 50000 nM by qPCR analysis relative to control
[17] = molecular target: Mitogen-activated protein kinase kinase kinase 3 (Homo sapiens) (UniProt Q99759); assay: Inhibition of DNA-tagged human MAP3K3 assessed as percent of control at 50000 nM by qPCR analysis relative to control
Chain of Mitogen-activated protein kinase kinase kinase 3 (Homo sapiens) (Q99759 whole entry): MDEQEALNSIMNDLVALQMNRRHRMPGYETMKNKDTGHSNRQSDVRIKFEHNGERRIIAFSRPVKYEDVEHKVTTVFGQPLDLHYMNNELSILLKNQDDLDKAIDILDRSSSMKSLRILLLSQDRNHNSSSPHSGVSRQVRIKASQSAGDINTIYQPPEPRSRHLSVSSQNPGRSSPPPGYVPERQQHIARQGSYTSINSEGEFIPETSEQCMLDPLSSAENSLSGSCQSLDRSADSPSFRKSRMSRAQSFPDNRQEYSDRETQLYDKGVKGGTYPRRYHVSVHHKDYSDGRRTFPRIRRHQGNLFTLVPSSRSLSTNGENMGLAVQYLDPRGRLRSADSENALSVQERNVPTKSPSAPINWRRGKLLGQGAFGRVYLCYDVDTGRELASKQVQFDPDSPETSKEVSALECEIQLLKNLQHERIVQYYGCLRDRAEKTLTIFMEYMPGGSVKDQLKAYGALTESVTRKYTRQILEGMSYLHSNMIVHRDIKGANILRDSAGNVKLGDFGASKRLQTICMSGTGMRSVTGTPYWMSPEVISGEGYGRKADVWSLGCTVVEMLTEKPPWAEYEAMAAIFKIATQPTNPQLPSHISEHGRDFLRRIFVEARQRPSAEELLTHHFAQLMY

[18] = molecular target: Mitogen-activated protein kinase kinase kinase kinase 2 (Homo sapiens) (UniProt Q12851); assay: Inhibition of DNA-tagged human MAP4K2 assessed as percent of control at 50000 nM by qPCR analysis relative to control
[19] = molecular target: Dual specificity mitogen-activated protein kinase kinase 6 (Homo sapiens) (UniProt P52564); assay: Inhibition of DNA-tagged human MEK6 assessed as percent of control at 50000 nM by qPCR analysis relative to control
[20] = molecular target: Myosin light chain kinase, smooth muscle (Homo sapiens) (UniProt Q15746); assay: Inhibition of DNA-tagged human MYLK assessed as percent of control at 50000 nM by qPCR analysis relative to control
[21] = molecular target: Serine/threonine-protein kinase Nek2 (Homo sapiens) (UniProt P51955); assay: Inhibition of DNA-tagged human NEK2 assessed as percent of control at 50000 nM by qPCR analysis relative to control
[22] = molecular target: Cyclin-dependent kinase 15 (Homo sapiens) (UniProt Q96Q40); assay: Inhibition of DNA-tagged human PFTAIRE2 assessed as percent of control at 50000 nM by qPCR analysis relative to control
[23] = molecular target: Serine/threonine-protein kinase pim-3 (Homo sapiens) (UniProt Q86V86); assay: Inhibition of DNA-tagged human PIM3 assessed as percent of control at 50000 nM by qPCR analysis relative to control
[24] = molecular target: Ribosomal protein S6 kinase alpha-4 (Homo sapiens) (UniProt O75676); assay: Inhibition of DNA-tagged human C-terminal RPS6KA4 kinase domain 2 assessed as percent of control at 50000 nM by qPCR analysis relative to control
Chain of Ribosomal protein S6 kinase alpha-4 (Homo sapiens) (O75676 whole entry, looked up, the tested form may be a part): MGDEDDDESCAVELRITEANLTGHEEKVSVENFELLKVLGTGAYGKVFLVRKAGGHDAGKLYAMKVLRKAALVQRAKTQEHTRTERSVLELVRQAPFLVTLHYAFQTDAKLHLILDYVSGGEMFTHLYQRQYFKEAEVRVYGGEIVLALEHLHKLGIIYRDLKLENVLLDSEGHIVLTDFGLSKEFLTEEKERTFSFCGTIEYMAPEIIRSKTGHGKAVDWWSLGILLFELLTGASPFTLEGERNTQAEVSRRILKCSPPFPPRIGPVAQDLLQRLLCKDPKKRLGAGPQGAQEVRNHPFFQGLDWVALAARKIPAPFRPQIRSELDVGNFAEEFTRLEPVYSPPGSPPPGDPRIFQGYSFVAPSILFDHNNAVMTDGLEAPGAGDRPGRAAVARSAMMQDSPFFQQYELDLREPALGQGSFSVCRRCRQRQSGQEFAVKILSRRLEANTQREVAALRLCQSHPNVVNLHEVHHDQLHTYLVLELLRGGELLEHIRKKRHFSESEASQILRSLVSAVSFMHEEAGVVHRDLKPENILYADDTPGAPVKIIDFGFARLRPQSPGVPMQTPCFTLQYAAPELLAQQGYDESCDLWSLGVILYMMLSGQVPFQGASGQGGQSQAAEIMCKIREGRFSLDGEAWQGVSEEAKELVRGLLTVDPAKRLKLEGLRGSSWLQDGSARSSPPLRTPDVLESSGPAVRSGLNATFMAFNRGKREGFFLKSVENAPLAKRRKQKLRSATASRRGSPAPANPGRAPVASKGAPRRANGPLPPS

[25] = molecular target: Ribosomal protein S6 kinase alpha-5 (Homo sapiens) (UniProt O75582); assay: Inhibition of DNA-tagged human C-terminal RPS6KA5 kinase domain 2 assessed as percent of control at 50000 nM by qPCR analysis relative to control
Chain of Ribosomal protein S6 kinase alpha-5 (Homo sapiens) (O75582 whole entry, looked up, the tested form may be a part): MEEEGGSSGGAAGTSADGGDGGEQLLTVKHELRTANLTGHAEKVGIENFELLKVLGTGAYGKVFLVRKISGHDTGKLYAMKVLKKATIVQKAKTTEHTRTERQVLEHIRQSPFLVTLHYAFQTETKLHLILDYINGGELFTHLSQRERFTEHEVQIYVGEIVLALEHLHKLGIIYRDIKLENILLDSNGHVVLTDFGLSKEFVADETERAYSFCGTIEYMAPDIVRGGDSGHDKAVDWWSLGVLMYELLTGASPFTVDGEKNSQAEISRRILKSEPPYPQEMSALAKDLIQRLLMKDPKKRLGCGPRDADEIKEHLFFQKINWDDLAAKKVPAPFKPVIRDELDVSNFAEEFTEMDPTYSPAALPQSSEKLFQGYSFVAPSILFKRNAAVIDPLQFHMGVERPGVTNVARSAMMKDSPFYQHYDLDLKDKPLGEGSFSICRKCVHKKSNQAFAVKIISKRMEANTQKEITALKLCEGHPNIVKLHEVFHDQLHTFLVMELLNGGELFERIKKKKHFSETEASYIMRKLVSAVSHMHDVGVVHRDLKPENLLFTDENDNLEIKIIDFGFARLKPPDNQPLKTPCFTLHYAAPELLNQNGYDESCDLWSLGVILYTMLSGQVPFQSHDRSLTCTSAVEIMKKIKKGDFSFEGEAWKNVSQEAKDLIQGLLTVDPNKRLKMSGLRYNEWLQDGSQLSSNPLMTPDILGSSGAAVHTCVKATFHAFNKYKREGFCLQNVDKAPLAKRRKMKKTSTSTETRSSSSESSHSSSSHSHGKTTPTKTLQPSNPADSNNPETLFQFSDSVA

[26] = molecular target: Tyrosine-protein kinase receptor TYRO3 (Homo sapiens) (UniProt Q06418); assay: Inhibition of DNA-tagged human TYRO3 assessed as percent of control at 50000 nM by qPCR analysis relative to control
Chain of Tyrosine-protein kinase receptor TYRO3 (Homo sapiens) (Q06418 whole entry): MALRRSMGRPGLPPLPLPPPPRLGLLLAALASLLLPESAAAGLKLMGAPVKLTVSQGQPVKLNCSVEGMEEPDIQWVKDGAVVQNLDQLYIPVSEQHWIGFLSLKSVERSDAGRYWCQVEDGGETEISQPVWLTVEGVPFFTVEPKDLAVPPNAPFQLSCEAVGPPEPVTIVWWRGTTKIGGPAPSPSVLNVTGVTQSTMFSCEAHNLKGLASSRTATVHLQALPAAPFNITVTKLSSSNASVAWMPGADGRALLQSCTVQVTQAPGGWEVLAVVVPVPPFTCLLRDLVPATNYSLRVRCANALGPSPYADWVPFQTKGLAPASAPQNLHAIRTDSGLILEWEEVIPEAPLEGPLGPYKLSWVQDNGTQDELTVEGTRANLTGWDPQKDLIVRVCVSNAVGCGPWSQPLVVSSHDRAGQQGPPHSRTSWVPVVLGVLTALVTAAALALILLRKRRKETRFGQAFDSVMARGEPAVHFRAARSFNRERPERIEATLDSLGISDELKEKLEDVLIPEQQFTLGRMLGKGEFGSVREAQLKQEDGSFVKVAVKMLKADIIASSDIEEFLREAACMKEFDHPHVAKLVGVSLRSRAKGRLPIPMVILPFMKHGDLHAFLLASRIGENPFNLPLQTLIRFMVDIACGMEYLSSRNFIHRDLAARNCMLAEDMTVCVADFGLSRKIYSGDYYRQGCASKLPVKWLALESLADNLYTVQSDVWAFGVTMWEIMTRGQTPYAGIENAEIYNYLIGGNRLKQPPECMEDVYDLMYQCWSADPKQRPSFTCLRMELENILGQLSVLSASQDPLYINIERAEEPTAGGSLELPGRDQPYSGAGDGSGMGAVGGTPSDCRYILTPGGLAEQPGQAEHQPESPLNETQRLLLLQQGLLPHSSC

[27] = molecular target: Serine/threonine-protein kinase ULK1 (Homo sapiens) (UniProt O75385); assay: Inhibition of DNA-tagged human ULK1 assessed as percent of control at 50000 nM by qPCR analysis relative to control
[28] = molecular target: Wee1-like protein kinase 2 (Homo sapiens) (UniProt P0C1S8); assay: Inhibition of DNA-tagged human WEE2 assessed as percent of control at 50000 nM by qPCR analysis relative to control
[29] = molecular target: Mitogen-activated protein kinase kinase kinase 20 (Homo sapiens) (UniProt Q9NYL2); assay: Inhibition of DNA-tagged human ZAK assessed as percent of control at 50000 nM by qPCR analysis relative to control

CN1C(=O)/C(=C2/C(=O)Nc3ccccc32)c2ccccc21
Activity [1]: 78% | Activity [2]: 92% | Activity [3]: 66% | Activity [4]: 91% | Activity [5]: 93% | Activity [6]: 97% | Activity [7]: 100% | Activity [8]: 89% | Activity [9]: 100% | Activity [10]: 93% | Activity [11]: 100% | Activity [12]: 100% | Activity [13]: 88% | Activity [14]: 100% | Activity [15]: 73% | Activity [16]: 75% | Activity [17]: 94% | Activity [18]: 92% | Activity [19]: 100% | Activity [20]: 82% | Activity [21]: 100% | Activity [22]: 88% | Activity [23]: 79% | Activity [24]: 89% | Activity [25]: 100% | Activity [26]: 77% | Activity [27]: 68% | Activity [28]: 95% | Activity [29]: 80%
